{"source": "patent US4253998A", "about": "“Peptides related to somatostatin” (American Home Products Corporation, priority 1979, dated 1981)", "type_in_all_cases": "in vivo, rat", "key": {"insulin": {"tested_on": "insulin", "assay": "Inhibition of insulin secretion in arginine-treated, pentobarbital-anesthetized rats (radioimmunoassay)", "description": "(§1) Male albino rats are divided into two groups (e.g. nine rats per group). Each animal is administered sodium pentobarbital (Nembutal), I. P., at a dose of 50 mg/kg. Fifteen minutes later, one group received a S. C. injection of the test compound in saline (typically 5 to 200 μg/kg.), and the other group (control) receives saline alone. Ten minutes later, each animal is given a 0.5 ml. injection of arginine (300 mg/ml., pH 7.2) into the heart. Five minutes after receipt of the arginine, the animals are decapitated and blood is collected into Trasylol-EDTA. An appropriate aliquot of each sample is assayed for GH, glucagon, and insulin by radioimmunossay. GH is determined by the method of Sinha et al., Endocrinol., 91, 784 (1972); glucagon is determined by the method of Caloona and Unger, \"Methods of Hormone Radioimmunoassay,\" Jaffe et al., Ed., Academic Press, New York, 1974, pages 317-330; and insulin is determined by the method of Hales and Randle, Biochem. J., 88, 137 (1963). The blood concentrations of growth hormone, glucagon, and insulin for the animals given the test compound are compared by standard statistical methods to the blood concentrations for the control group."}, "growth hormone (GH) [1]": {"tested_on": "growth hormone (GH)", "assay": "Inhibition of growth hormone secretion in arginine-treated, pentobarbital-anesthetized rats (radioimmunoassay)", "description": "as §1"}, "glucagon": {"tested_on": "glucagon", "assay": "Inhibition of glucagon secretion in arginine-treated, pentobarbital-anesthetized rats (radioimmunoassay)", "description": "as §1"}, "growth hormone (GH) [2]": {"tested_on": "growth hormone (GH)", "assay": "Prolonged inhibition of growth hormone in rats (plasma GH 2 to 6 hours after S.C. injection)", "conditions": "for Plasma GH: 1000 μg/kg S.C.", "description": "Albino male rats are arranged in two groups (nine rats per group). One group received a subcutaneous (S. C.) injection of the test compound (typically 1 mg/kg.) in saline, and the other group received a S. C. injection of saline alone (control). […] P. injection of sodium pentobarbital, 50 mg/kg. At the end of the experiment, blood samples are taken from each animal by cardiac puncture, and each sample is mixed with Trasylol-EDTA. An aliquot of each sample is assayed for GH by radioimmunoassay. The blood growth hormone concentrations for the animals receiving the test compound are compared by standard statistical methods to the growth hormone concentrations for the control animals. Compounds considered long-acting product a significant decrease in blood growth hormone concentration at a dose of 1 mg/kg. at least two hours after injection."}}, "note": "Where a name gives a salt, the structure may show the parent alone. Bridge positions count the residues as written; N and C are the ends. Square brackets hold non-standard residues; d marks the D form. Peptide text beside a SMILES is read from it.", "data": [{"smiles": "C[C@@H](O)[C@@H]1NC(=O)[C@H](CCCCN)NC(=O)[C@@H](Cc2c[nH]c3ccccc23)NC(=O)[C@H](Cc2ccccc2)NC(=O)[C@H](Cc2ccccc2)NC(=O)[C@H](Cc2c[nH]cn2)NC(=O)[C@H](Cc2c[nH]cn2)NC(=O)[C@@H](N)CSSC[C@@H](C(=O)O)NC(=O)[C@@H](CO)NC(=O)[C@H]([C@@H](C)O)NC(=O)[C@H](Cc2ccccc2)NC1=O", "note": "[Example 6, L-Cysteinyl-L-Histidyl-L-Histidyl-L-Phenylalanyl-L-Phenylalanyl-D-Tryptophyl-L-Lysyl-L-Threonyl-L-Phenylalanyl-L-Threonyl-D-Seryl-L-Cysteine Cyclic (1→12) Disulfide Triacetate Salt] (H-CHHFF[dW]KTFT[dS]C-OH; disulfide 1-12)", "values": [{"measurement": "Insulin", "setting": "insulin; Exp. F, 100 μg/kg S.C., control 75 ± 8, not significant", "result": "60 ± 10", "unit": "μU/ml"}, {"measurement": "GH", "setting": "growth hormone (GH) [1]; Exp. F, 100 μg/kg S.C., control 363 ± 74, p < 0.01", "result": "83 ± 16", "unit": "ng/mL"}, {"measurement": "Glucagon", "setting": "glucagon; Exp. F, 100 μg/kg S.C., control 162 ± 29, p < 0.01", "result": "55 ± 12", "unit": "pg/mL"}]}, {"smiles": "C[C@@H](O)[C@@H]1NC(=O)[C@H](CCCCN)NC(=O)[C@@H](Cc2c[nH]c3ccccc23)NC(=O)[C@H](Cc2ccccc2)NC(=O)[C@H](Cc2ccccc2)NC(=O)[C@H](CCC(=O)O)NC(=O)[C@H](CCCNC(=N)N)NC(=O)[C@@H](N)CSSC[C@@H](C(=O)O)NC(=O)[C@@H](Cc2ccc(O)cc2)NC(=O)[C@H]([C@@H](C)O)NC(=O)[C@H](Cc2ccccc2)NC1=O", "note": "[Example 4, L-Cysteinyl-L-Arginyl-L-α-Glutamyl-L-Phenylalanyl-L-Phenylalanyl-D-Tryptophyl-L-Lysyl-L-Threonyl-L-Phenylalanyl-L-Threonyl-D-Tyrosyl-L-Cysteine Cyclic (1→12) Disulfide Triacetate Salt] (H-CREFF[dW]KTFT[dY]C-OH; disulfide 1-12)", "values": [{"measurement": "Insulin", "setting": "insulin; Exp. E, 200 μg/kg S.C., control 336 ± 31, p < 0.01", "result": "128 ± 33", "unit": "μU/ml"}, {"measurement": "GH", "setting": "growth hormone (GH) [1]; Exp. E, 200 μg/kg S.C., control 354 ± 57, p < 0.01", "result": "81 ± 6", "unit": "ng/mL"}, {"measurement": "Glucagon", "setting": "glucagon; Exp. E, 200 μg/kg S.C., control 62 ± 10, not significant", "result": "41 ± 14", "unit": "pg/mL"}]}, {"smiles": "C[C@@H](O)[C@@H]1NC(=O)[C@H](CCCCN)NC(=O)[C@@H](Cc2c[nH]c3ccccc23)NC(=O)[C@H](Cc2ccccc2)NC(=O)[C@H](Cc2ccccc2)NC(=O)[C@H](Cc2c[nH]cn2)NC(=O)[C@H](CCCNC(=N)N)NC(=O)[C@@H](N)CSSC[C@@H](C(=O)O)NC(=O)[C@@H](Cc2ccc(O)cc2)NC(=O)[C@H]([C@@H](C)O)NC(=O)[C@H](Cc2ccccc2)NC1=O", "note": "[Example 2, L-Cysteinyl-L-Arginyl-L-Histidyl-L-Phenylalanyl-L-Phenylalanyl-D-Tryptophyl-L-Lysyl-L-Threonyl-L-Phenylalanyl-L-Threonyl-D-Tyrosyl-L-Cysteine Cyclic (1→12) Disulfide] (H-CRHFF[dW]KTFT[dY]C-OH; disulfide 1-12)", "values": [{"measurement": "Insulin", "setting": "insulin; Exp. A, 100 μg/kg S.C., control 298 ± 33, p < 0.05", "result": "154 ± 39", "unit": "μU/ml"}, {"measurement": "Insulin", "setting": "insulin; Exp. B, 400 μg/kg S.C., control 187 ± 21, p < 0.01", "result": "70 ± 23", "unit": "μU/ml"}, {"measurement": "Plasma GH", "setting": "growth hormone (GH) [2]; Exp. C, 2 hours, control 213 ± 14, p < 0.001", "result": "89 ± 5", "unit": "ng/mL"}, {"measurement": "Plasma GH", "setting": "growth hormone (GH) [2]; Exp. C, 4 hours, control 182 ± 12, p < 0.001", "result": "101 ± 13", "unit": "ng/mL"}, {"measurement": "Plasma GH", "setting": "growth hormone (GH) [2]; Exp. D, 5 hours, control 337 ± 36, p < 0.05", "result": "230 ± 31", "unit": "ng/mL"}, {"measurement": "Plasma GH", "setting": "growth hormone (GH) [2]; Exp. D, 6 hours, control 234 ± 24, not significant", "result": "172 ± 34", "unit": "ng/mL"}, {"measurement": "Prolonged inhibition of growth hormone / period of action (in words)", "setting": "growth hormone (GH) [2]; rat, in vivo", "result": "shows prolonged inhibition of growth hormone"}, {"measurement": "GH", "setting": "growth hormone (GH) [1]; Exp. A, 100 μg/kg S.C., blood 15 min after dose, 5 min after arginine, control 508 ± 13, p < 0.05", "result": "181 ± 47", "unit": "ng/mL"}, {"measurement": "GH", "setting": "growth hormone (GH) [1]; Exp. B, 400 μg/kg S.C., control 234 ± 36, p < 0.01", "result": "67 ± 13", "unit": "ng/mL"}, {"measurement": "Glucagon", "setting": "glucagon; Exp. A, 100 μg/kg S.C., control 61 ± 8, p < 0.01", "result": "22 ± 7", "unit": "pg/mL"}, {"measurement": "Glucagon", "setting": "glucagon; Exp. B, 400 μg/kg S.C., control 41 ± 5, p < 0.01", "result": "9 ± 1", "unit": "pg/mL"}]}]}
